Test results published in PubChem BioAssay (NCI).
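Values below derive from 48-hour exposures of cells grown in 96-well plates, with endpoints linearly interpolated between the two concentrations bracketing the appropriate inhibition level. TGI: concentration producing complete growth inhibition.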

Key:
Assay in all cases: NCI anticancer screen, dose series, 48 h
SF-295 CNS = tested on: SF-295 CNS
MDA-N = tested on: MDA-N
K-562 leukemia = tested on: K-562 leukemia
SK-MEL-2 melanoma = tested on: SK-MEL-2 melanoma
OVCAR-4 ovarian = tested on: OVCAR-4 ovarian
IGROV1 ovarian = tested on: IGROV1 ovarian
UACC-257 melanoma = tested on: UACC-257 melanoma
NCI/ADR-RES ovarian = tested on: NCI/ADR-RES ovarian
NCI-H460 lung = tested on: NCI-H460 lung
CAKI-1 renal = tested on: CAKI-1 renal
SN12C renal = tested on: SN12C renal
UO-31 renal = tested on: UO-31 renal
SW-620 colon = tested on: SW-620 colon
MDA-MB-231 breast = tested on: MDA-MB-231 breast
MDA-MB-435 = tested on: MDA-MB-435
MOLT-4 leukemia = tested on: MOLT-4 leukemia
BT-549 breast = tested on: BT-549 breast
TK-10 renal = tested on: TK-10 renal
MCF7 breast = tested on: MCF7 breast
HOP-62 NSCLC = tested on: HOP-62 NSCLC
NCI-H23 lung = tested on: NCI-H23 lung
SNB-19 CNS = tested on: SNB-19 CNS
SK-MEL-28 melanoma = tested on: SK-MEL-28 melanoma
HS 578T breast = tested on: HS 578T breast
M14 melanoma = tested on: M14 melanoma
U251 CNS = tested on: U251 CNS
HCT-116 colon = tested on: HCT-116 colon
RXF 393 renal = tested on: RXF 393 renal
HT29 colon = tested on: HT29 colon
SK-MEL-5 melanoma = tested on: SK-MEL-5 melanoma
SR leukemia = tested on: SR leukemia
ACHN renal = tested on: ACHN renal
OVCAR-8 ovarian = tested on: OVCAR-8 ovarian
SF-268 CNS = tested on: SF-268 CNS
OVCAR-3 ovarian = tested on: OVCAR-3 ovarian
EKVX NSCLC = tested on: EKVX NSCLC
A498 renal = tested on: A498 renal
T-47D breast = tested on: T-47D breast
CCRF-CEM leukemia = tested on: CCRF-CEM leukemia
DU-145 prostate = tested on: DU-145 prostate
LOX IMVI melanoma = tested on: LOX IMVI melanoma
UACC-62 melanoma = tested on: UACC-62 melanoma
SF-539 CNS = tested on: SF-539 CNS
PC-3 prostate = tested on: PC-3 prostate
NCI-H226 lung = tested on: NCI-H226 lung
HCT-15 colon = tested on: HCT-15 colon
SNB-75 CNS = tested on: SNB-75 CNS
786-0 renal = tested on: 786-0 renal
COLO 205 colon = tested on: COLO 205 colon
SK-OV-3 ovarian = tested on: SK-OV-3 ovarian
MALME-3M melanoma = tested on: MALME-3M melanoma
OVCAR-5 ovarian = tested on: OVCAR-5 ovarian
A549 NSCLC = tested on: A549 NSCLC
HOP-92 NSCLC = tested on: HOP-92 NSCLC
HL-60(TB) leukemia = tested on: HL-60(TB) leukemia
HCC-2998 colon = tested on: HCC-2998 colon

Structure (SMILES): COC(=O)c1ccc(NCC2=CC(=O)C=CC2=O)cc1O
- TGI (SF-295 CNS): 32.3 µM
- TGI (MDA-N): 35.8 µM
- TGI (K-562 leukemia): > 100 µM
- TGI (SK-MEL-2 melanoma): > 100 µM
- TGI (OVCAR-4 ovarian): 30.3 µM
- TGI (IGROV1 ovarian): 41.6 µM
- TGI (UACC-257 melanoma): 30.6 µM
- TGI (NCI/ADR-RES ovarian): 47 µM
- TGI (NCI-H460 lung): 43.4 µM
- TGI (CAKI-1 renal): 32.8 µM
- TGI (SN12C renal): 66.5 µM
- TGI (UO-31 renal): 25.4 µM
- TGI (SW-620 colon): > 100 µM
- TGI (MDA-MB-231 breast): 34.7 µM
- TGI (MDA-MB-435): 82.9 µM
- TGI (MOLT-4 leukemia): > 100 µM
- TGI (BT-549 breast): 25.1 µM
- TGI (TK-10 renal): 27.9 µM
- TGI (MCF7 breast): 76.3 µM
- TGI (HOP-62 NSCLC): 34.5 µM
- TGI (NCI-H23 lung): 36.6 µM
- TGI (SNB-19 CNS): 48.3 µM
- TGI (SK-MEL-28 melanoma): > 100 µM
- TGI (HS 578T breast): > 100 µM
- TGI (M14 melanoma): 50.6 µM
- TGI (U251 CNS): > 100 µM
- TGI (HCT-116 colon): 33.8 µM
- TGI (RXF 393 renal): 44 µM
- TGI (HT29 colon): 38.6 µM
- TGI (SK-MEL-5 melanoma): 80.1 µM
- TGI (SR leukemia): > 100 µM
- TGI (ACHN renal): 26.8 µM
- TGI (OVCAR-8 ovarian): 30.8 µM
- TGI (SF-268 CNS): > 100 µM
- TGI (OVCAR-3 ovarian): 24.7 µM
- TGI (EKVX NSCLC): 31.6 µM
- TGI (A498 renal): 32.8 µM
- TGI (T-47D breast): 47.1 µM
- TGI (CCRF-CEM leukemia): > 100 µM
- TGI (DU-145 prostate): 29 µM
- TGI (LOX IMVI melanoma): 37.5 µM
- TGI (UACC-62 melanoma): 30.4 µM
- TGI (SF-539 CNS): 28 µM
- TGI (PC-3 prostate): > 100 µM
- TGI (NCI-H226 lung): 44.7 µM
- TGI (HCT-15 colon): 34.5 µM
- TGI (SNB-75 CNS): 42.9 µM
- TGI (786-0 renal): 31.4 µM
- TGI (COLO 205 colon): 31.4 µM
- TGI (SK-OV-3 ovarian): 42.5 µM
- TGI (MALME-3M melanoma): 28.6 µM
- TGI (OVCAR-5 ovarian): 36.9 µM
- TGI (A549 NSCLC): > 100 µM
- TGI (HOP-92 NSCLC): 9.27 µM

Structure (SMILES): COC(Cc1cc(C(O)(c2ccc(C(C)(C)C)cc2)c2cc(CC(OC)(c3cc(C(OC)(c4ccc(C(C)(C)C)cc4)c4ccc(C(C)(C)C)cc4)c(C)cc3C)c3cc(C(OC)(c4ccc(C(C)(C)C)cc4)c4ccc(C(C)(C)C)cc4)c(C)cc3C)c(C)cc2C)c(C)cc1C)(c1cc(C(OC)(c2ccc(C(C)(C)C)cc2)c2ccc(C(C)(C)C)cc2)c(C)cc1C)c1cc(C(OC)(c2ccc(C(C)(C)C)cc2)c2ccc(C(C)(C)C)cc2)c(C)cc1C
- TGI (SF-295 CNS): > 75 µM
- TGI (HL-60(TB) leukemia): > 75 µM
- TGI (MDA-N): > 75 µM
- TGI (K-562 leukemia): > 75 µM
- TGI (SK-MEL-2 melanoma): > 75 µM
- TGI (OVCAR-4 ovarian): > 75 µM
- TGI (IGROV1 ovarian): > 75 µM
- TGI (UACC-257 melanoma): > 75 µM
- TGI (NCI/ADR-RES ovarian): > 75 µM
- TGI (NCI-H460 lung): > 75 µM
- TGI (CAKI-1 renal): > 75 µM
- TGI (SN12C renal): > 75 µM
- TGI (UO-31 renal): > 75 µM
- TGI (SW-620 colon): > 75 µM
- TGI (MDA-MB-231 breast): > 75 µM
- TGI (MDA-MB-435): > 75 µM
- TGI (MOLT-4 leukemia): > 75 µM
- TGI (BT-549 breast): > 75 µM
- TGI (TK-10 renal): > 75 µM
- TGI (MCF7 breast): > 75 µM
- TGI (HOP-62 NSCLC): > 75 µM
- TGI (NCI-H23 lung): > 75 µM
- TGI (SNB-19 CNS): > 75 µM
- TGI (SK-MEL-28 melanoma): > 75 µM
- TGI (HS 578T breast): > 75 µM
- TGI (M14 melanoma): > 75 µM
- TGI (U251 CNS): > 75 µM
- TGI (HCT-116 colon): > 75 µM
- TGI (RXF 393 renal): > 75 µM
- TGI (HT29 colon): > 75 µM
- TGI (HCC-2998 colon): > 75 µM
- TGI (SK-MEL-5 melanoma): > 75 µM
- TGI (SR leukemia): > 75 µM
- TGI (OVCAR-8 ovarian): > 75 µM
- TGI (SF-268 CNS): > 75 µM
- TGI (OVCAR-3 ovarian): > 75 µM
- TGI (EKVX NSCLC): > 75 µM
- TGI (A498 renal): > 75 µM
- TGI (T-47D breast): > 75 µM
- TGI (CCRF-CEM leukemia): > 75 µM
- TGI (DU-145 prostate): > 75 µM
- TGI (LOX IMVI melanoma): > 75 µM
- TGI (UACC-62 melanoma): > 75 µM
- TGI (SF-539 CNS): > 75 µM
- TGI (PC-3 prostate): > 75 µM
- TGI (NCI-H226 lung): > 75 µM
- TGI (HCT-15 colon): > 75 µM
- TGI (SNB-75 CNS): > 75 µM
- TGI (COLO 205 colon): > 75 µM
- TGI (SK-OV-3 ovarian): > 75 µM
- TGI (MALME-3M melanoma): > 75 µM
- TGI (OVCAR-5 ovarian): > 75 µM
- TGI (A549 NSCLC): > 75 µM
- TGI (HOP-92 NSCLC): > 75 µM
